According to ChEMBL document CHEMBL3779862, “Amyloid cascade in Alzheimer's disease: Recent advances in medicinal chemistry” (Eur J Med Chem, 2016):

Experiments:
[1] = biological target: T1, Amyloid-beta precursor protein (Homo sapiens, UniProt P05067); assay: Inhibition of amyloid beta (1 to 42) (unknown origin) aggregation measured after 24 hrs by Thioflavin T-based fluorometric assay
[2] = biological target: T1, Amyloid-beta precursor protein; assay: Inhibition of amyloid beta (1 to 42) (unknown origin) aggregation at 50 uM measured after 3 hrs by Thioflavin T-based fluorometric assay
[3] = biological target: T1, Amyloid-beta precursor protein; assay: Inhibition of human amyloid beta (1 to 42) aggregation at 100 uM measured after 72 hrs by Thioflavin T-based fluorometric assay
Cholinesterase = Cholinesterase (Homo sapiens, UniProt P06276); assay: Inhibition of human BuChE assessed as hydrolytic activity using butyrylthiocholine iodide as substrate measured for 15 mins by Ellmans assay
Chain of Cholinesterase (P06276 whole entry): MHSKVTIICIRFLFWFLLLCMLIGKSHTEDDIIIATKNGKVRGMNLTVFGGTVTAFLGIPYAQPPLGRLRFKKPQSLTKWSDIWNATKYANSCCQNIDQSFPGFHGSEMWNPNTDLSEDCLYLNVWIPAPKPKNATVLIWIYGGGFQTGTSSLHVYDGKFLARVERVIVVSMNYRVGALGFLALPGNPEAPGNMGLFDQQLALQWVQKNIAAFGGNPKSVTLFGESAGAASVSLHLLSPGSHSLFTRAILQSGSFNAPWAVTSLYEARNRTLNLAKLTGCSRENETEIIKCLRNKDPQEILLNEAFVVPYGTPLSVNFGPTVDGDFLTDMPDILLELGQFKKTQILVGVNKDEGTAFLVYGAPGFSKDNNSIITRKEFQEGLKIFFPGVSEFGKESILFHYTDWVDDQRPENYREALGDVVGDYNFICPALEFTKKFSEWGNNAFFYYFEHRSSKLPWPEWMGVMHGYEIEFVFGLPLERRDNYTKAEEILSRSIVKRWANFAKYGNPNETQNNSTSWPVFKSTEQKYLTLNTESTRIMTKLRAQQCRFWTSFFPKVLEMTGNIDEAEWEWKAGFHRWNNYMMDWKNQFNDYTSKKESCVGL

Acetylcholinesterase = Acetylcholinesterase (Homo sapiens, UniProt P22303); assay: Inhibition of human AChE assessed as hydrolytic activity using acetylthiocholine iodide as substrate measured for 15 mins by Ellmans assay
Chain of Acetylcholinesterase (P22303 whole entry): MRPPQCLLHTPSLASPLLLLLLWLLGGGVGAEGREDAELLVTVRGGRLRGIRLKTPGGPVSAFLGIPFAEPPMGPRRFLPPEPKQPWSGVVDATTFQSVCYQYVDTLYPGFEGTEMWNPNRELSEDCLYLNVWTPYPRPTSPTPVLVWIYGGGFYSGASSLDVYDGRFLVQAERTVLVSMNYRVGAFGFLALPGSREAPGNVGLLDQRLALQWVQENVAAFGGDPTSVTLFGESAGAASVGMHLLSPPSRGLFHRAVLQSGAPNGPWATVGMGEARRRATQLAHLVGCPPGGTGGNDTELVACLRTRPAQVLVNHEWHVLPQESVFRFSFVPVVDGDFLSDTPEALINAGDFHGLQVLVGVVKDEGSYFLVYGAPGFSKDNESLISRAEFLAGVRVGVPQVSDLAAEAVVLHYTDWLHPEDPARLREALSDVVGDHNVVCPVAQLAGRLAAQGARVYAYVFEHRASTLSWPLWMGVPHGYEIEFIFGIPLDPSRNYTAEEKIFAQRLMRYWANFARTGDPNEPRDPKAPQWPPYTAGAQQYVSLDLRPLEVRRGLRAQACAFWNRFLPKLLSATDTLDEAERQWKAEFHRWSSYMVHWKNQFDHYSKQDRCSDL

T1 sequence (P05067 whole entry): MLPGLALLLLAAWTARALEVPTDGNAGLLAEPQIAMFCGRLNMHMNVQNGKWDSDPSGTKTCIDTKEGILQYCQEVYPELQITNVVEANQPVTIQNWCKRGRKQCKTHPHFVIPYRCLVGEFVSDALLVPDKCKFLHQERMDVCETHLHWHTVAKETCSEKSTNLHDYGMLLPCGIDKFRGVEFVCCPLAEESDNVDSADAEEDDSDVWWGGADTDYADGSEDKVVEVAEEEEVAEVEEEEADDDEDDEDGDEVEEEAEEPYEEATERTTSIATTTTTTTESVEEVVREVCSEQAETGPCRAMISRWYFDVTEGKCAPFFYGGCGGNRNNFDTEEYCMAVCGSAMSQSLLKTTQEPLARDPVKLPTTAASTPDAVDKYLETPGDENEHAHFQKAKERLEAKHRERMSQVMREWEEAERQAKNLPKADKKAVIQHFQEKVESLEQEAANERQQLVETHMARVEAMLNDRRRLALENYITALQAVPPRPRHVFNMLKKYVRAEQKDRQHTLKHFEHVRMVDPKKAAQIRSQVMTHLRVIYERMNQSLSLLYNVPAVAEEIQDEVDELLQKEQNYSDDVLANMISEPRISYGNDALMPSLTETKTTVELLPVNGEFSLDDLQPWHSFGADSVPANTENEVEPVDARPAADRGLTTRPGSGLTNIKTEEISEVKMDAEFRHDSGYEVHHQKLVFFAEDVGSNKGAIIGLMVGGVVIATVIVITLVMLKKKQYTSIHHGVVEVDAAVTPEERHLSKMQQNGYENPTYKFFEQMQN

| Structure (SMILES) | IC50 [1] | inhibition [2] | inhibition [3] | IC50 (Cholinesterase) | IC50 (Acetylcholinesterase) |
| --- | --- | --- | --- | --- | --- |
| CN(C)c1ccc(-c2cc(NCCNc3cc(-c4ccc(N(C)C)cc4)[nH]n3)n[nH]2)cc1 | 7.5 µM |  |  |  |  |
| CC(C)CCNC(=O)c1cc(Cc2ccccc2)cc(Oc2ccccc2)n1 |  | 71% |  |  |  |
| O=C(NC1C2CC3CC(C2)CC1C3)c1nc(Cc2ccccc2)cc(Oc2ccccc2)n1 (centres undefined) |  | 47% |  |  |  |
| COc1nc(Oc2ccc(C(=O)OCC(C)N(C)C)cc2)nc(Oc2ccc(C(=O)OCC(C)N(C)C)cc2)n1 (centres undefined) |  |  | 58.4% | > 200 µM | 111 µM |
| CC(COC(=O)c1ccc(Oc2nc(Oc3ccc(C(=O)OCC(C)N(C)C)cc3)nc(Oc3ccc(C(=O)OCC(C)N(C)C)cc3)n2)cc1)N(C)C (centres undefined) |  |  | 68.5% | 164 µM | 80.8 µM |
| Cc1ccc(-c2cc(NCCNc3cc(-c4cccs4)[nH]n3)n[nH]2)cc1 | 29 µM |  |  |  |  |
| C[N+](C)(C)CCOC(=O)c1ccc(Oc2nc(Oc3ccc(C(=O)OCC[N+](C)(C)C)cc3)nc(Oc3ccc(C(=O)OCC[N+](C)(C)C)cc3)n2)cc1 |  |  | 50.9% | 3.9 µM | 0.3 µM |
| Fc1ccc(-c2cc(NCCNc3cc(-c4ccc(F)cc4)[nH]n3)n[nH]2)cc1 | 40.5 µM |  |  |  |  |
